Measured values published in publication PMC8626775, “Anti-schistosomal activities of quinoxaline-containing compounds: From hit identification to lead optimisation” (European Journal of Medicinal Chemistry, 2021).
Entries after “also recorded” stand apart in the source; their conditions may differ.

Key:
[1] = system: Juvenile S. mansoni worms; experiment: S. mansoni juvenile worm screen (motility score, propidium iodide uptake), 72 h; assay type: cell-based, Schistosoma mansoni; conditions: for EC50: 3 week juvenile S. mansoni; for PI pos: juvenile worms, Fig. S4
Description: Mice (Mus musculus HsdOLa:TO - Tuck Ordinary; Envigo, UK) were used for the mammalian-specific propagation of the S. mansoni life cycle. Experimental animals were infected with 4000 or 180 S. mansoni cercariae/mouse and perfused three- or seven-weeks post-infection to obtain S. mansoni juvenile or adult worms, respectively. Preparation steps following perfusion have been described previously. Briefly, the parasite material was washed three times with pre-warmed adult worm media (DMEM (Gibco, Paisley, UK) supplemented with 10% (v/v) Fetal Calf Serum (FCS, Gibco, Paisley, UK), 1% (v/v) L-glutamine (Gibco, Paisley, UK) and an antibiotic mixture (150 Units/ml penicillin and 150 μg/ml streptomycin; Gibco, UK)) to remove residual host contamination and incubated in a humidified environment containing 5% CO2 at 37 °C for at least 1 h.
Juvenile worms were distributed in a 96-well tissue culture plate (n = 20–25 individuals/well) containing 200 μl/well. Compounds were added to each treatment well at a concentration range of 10–0.156 μM. Negative (1.25% DMSO) and positive (15 μM PZQ and 15 μM AUR in 1.25% DMSO) controls were also included in each drug screen. Treated juvenile worms were incubated for 72 h in a humidified environment containing 5% CO2 at 37 °C. Compound-induced phenotype and motility effects were quantified using an adapted version of the WHO-TDR scoring system (in summary: 0 = dead, 1 = movement of the suckers only and slight contraction of the body, 2 = movement at the anterior and posterior regions only, 3 = full body movement but sluggish and 4 = normal movement). Additionally, differential uptake of propidium iodide (PI, P1304MP, Sigma-Aldrich, UK) was used to quantify worm viability as previously described. In brief, after 15 min incubation with 2 μg/ml PI, the parasite cultures were imaged under both bright-field and fluorescent settings (PI detection, 562 and 624 excitation and emission wavelengths, respectively) using an ImageXpressXL high content imager (Molecular Devices, UK). Enumeration of PI positive and negative juvenile worms was manually performed across all parasites within the well and the percentage of PI positive parasite was calculated per well.

[2] = in vitro; conditions: human, TK6 lymphoblastoid cells
Description: (§1) The in vitro micronucleus (MN) assay was employed for the assessment of chromosome damage. Human, p53 competent, lymphoblastoid TK6 cells (Cat. No. 95111735) were used in this study and obtained from the European Collection of Authenticated Cell Cultures (ECACC)). RPMI 1640 (Gibco, Paisley, UK) culture media supplemented with 1% penicillin/streptomycin (100 U/ml Penicillin and 100 μg/ml Streptomycin), 10% heat inactivated horse serum (Gibco, Paisley, UK), 1% L-glutamine (Gibco, Paisley, UK) and hygromycine-B was used for TK6 cell culture. Cells were incubated at 37 °C in a humidified atmosphere of 5% (v/v) CO2.

[3] = system: TK6 cells; experiment: Genotoxicity assessment in TK6 cells (micronucleus, ɣH2AX, p53, cell cycle)
Description: as §1

[4] = system: S. mansoni adult worms; experiment: In vitro laid egg (IVLE) production by S. mansoni adult worm pairs, 72 h; assay type: cell-based, Schistosoma mansoni; conditions: 0.0024–10 μM
Description: For the evaluation of anti-schistosomal activity on the adult stage of the parasite, 7-wk old worms were transferred into 48 well tissue culture plates (1–3 worm pairs/well, in duplicate). […] DMSO (0.5%) and praziquantel (10 μM in 0.5% DMSO) were also included as negative and positive control treatments. Treated adult worms were incubated for 72 h in a humidified environment containing 5% CO2 at 37 °C. Parasite motility after compound treatment was assessed by a digital image processing-based system (WormassayGP2), modified after Wormassay. Following compound-parasite co-incubation, eggs were collected, fixed in formalin (10% v/v formaldehyde) and enumerated aiming to collect further information on any compound-induced effects on parasite fecundity and IVLE production.

[5] = system: HepG2 cells; experiment: HepG2 MTT cytotoxicity assay
Summary of the method: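 HepG2 cells seeded at 2 × 10^4 cells/well, cultured at 37 °C in 5% CO2. Viability by MTT, formazan absorbance at 570 nm. The cytotoxicity value served for computing compound selectivity index.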

| Structure (SMILES) | EC50 ([1]; 72 h) [nM] | Concentration down to which parasite death of juvenile worms was induced ([1]; 72 h, supported by propidium iodide staining) [µM] | EC50 ([1]; Schistosoma mansoni, 72 h) [nM] | PI pos ([1]; 0.156 µM) [%] | PI pos ([1]; 0.312 µM) [%] | PI pos ([1]; 0.625 µM) [%] | PI pos ([1]; 1.25 µM) [%] | PI pos ([1]; 2.50 µM) [%] | PI pos ([1]; 5 µM) [%] | PI pos ([1]; 10 µM) [%] | CC50 at 24 h [2] [nM] | Number of micronuclei (MNi) compared to DMSO treated cells [3] | Cell-cycle analysis ([3]; 2 and 4 μM) | Genotoxicity ([3]; TK6 cells, 0.5, 2 and 4 μM) | Effect on IVLE production compared with PZQ [4] | Toxicity on HepG2 in words ([5]; 24 h) | Selectivity Index (SI) Adult worms ([5]; HepG2 CC50 versus adult worm EC50) | Selectivity Index (SI) Somula ([5]; HepG2 CC50 versus schistosomula EC50) |
| --- | --- | --- | --- | --- | --- | --- | --- | --- | --- | --- | --- | --- | --- | --- | --- | --- | --- | --- |
| O=[N+]([O-])c1ccc2nc(Nc3ccc(Cl)c(Cl)c3)c(Nc3ccc(Cl)c(Cl)c3)nc2c1 [Compound 22, N^2, N^3-bis(3,4-dichlorophenyl)-6-nitroquinoxaline-2,3-diamine] | 201 | 1.25 | 200 | 0 | 10 | 20 | 100 | 100 | 100 | 100 | 9360 | did not change significantly | G2/M phase arrest | non-genotoxic; also recorded: does not induce genotoxicity | – | – | – | – |
| O=[N+]([O-])c1ccc2nc(Nc3cc(C(F)(F)F)ccc3F)c(Nc3cc(C(F)(F)F)ccc3F)nc2c1 [Compound 33, N2, N3-bis(2-fluoro-5-(trifluoromethyl)phenyl)-6-nitroquinoxaline-2,3-diamine] | – | – | – | – | – | – | – | – | – | – | – | – | – | – | more potent than PZQ | low toxicity | 17.87 | 0.66 |
